{
  "source": "PubChem BioAssay AID651772",
  "about": "(Broad Institute, 2012)",
  "note": "Where “and” joins values, the source holds several entries; their conditions need not be identical. Equal values may be shown once. Results filed as inconclusive are left out. Calls of active or inactive are those of the source.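 Rule for the calls: active = compounds whose fitted curve reaches 40% higher CDK2 Ct shift, meaning less CDK2 mRNA, within twice the top dose; inconclusive = flat curve with 30 to 70% opposite effect, or poor fit; inactive = the rest.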",
  "data": [
    {"test_system": "not listed separately", "experiment": "CDK2 transcript decrease in melanoma cells – cell-based, SK-MEL-5, RT-qPCR, dry powder samples, orthogonal assay for MITF inhibitor project, dose response (AID 651772)", "conditions": "SK-MEL-5 CDK2 mRNA, RT-qPCR delta-delta-Ct, overnight", "values": [
      {"smiles": "NC1=C(NS(=O)(=O)c2ccc(Br)s2)C(=O)c2ccccc2C1=O", "outcome": "inactive"}
    ]},
    {"test_system": "SK-MEL-5 CDK2 mRNA, RT-qPCR delta-delta-Ct, overnight", "experiment": "CDK2 transcript decrease in melanoma cells – cell-based, SK-MEL-5, RT-qPCR, dry powder samples, orthogonal assay for MITF inhibitor project, dose response (AID 651772)", "conditions": "not given", "values": [
      {"smiles": "O=C1C(Nc2ccccc2)=C(c2ccccc2)C(=O)c2ccccc21", "AC40": "7060 nM"},
      {"smiles": "CC(C)N1CCN(C2=C(Nc3ccc(F)cc3F)C(=O)c3ccccc3C2=O)CC1", "AC40": "1770 nM"},
      {"smiles": "COC1=C(NS(=O)(=O)c2ccccc2)C(=O)c2ccccc2C1=O", "AC40": "3500 nM"},
      {"smiles": "COC1=C(NS(=O)(=O)c2ccc(Br)cc2)C(=O)c2ccccc2C1=O", "AC40": "4290 nM"},
      {"smiles": "NC1=CC(=O)c2ccccc2C1=O", "AC40": "300 nM"},
      {"smiles": "Cc1nc2ccccc2n1/N=C/c1ccc([N+](=O)[O-])s1", "AC40": "2920 nM"},
      {"smiles": "NC1=C(NS(=O)(=O)c2ccc(Br)cc2)C(=O)c2ccccc2C1=O", "AC40": "9610 nM"},
      {"smiles": "NC1=C(NC(=O)c2ccccc2)C(=O)c2ccccc2C1=O", "AC40": "882 nM"},
      {"smiles": "O=C1C(Nc2ccc(F)cc2)=C(N2CCCCC2)C(=O)c2ccccc21", "AC40": "8220 nM"},
      {"smiles": "O=C1C=C(NS(=O)(=O)c2cccs2)C(=O)c2ccccc21", "AC40": "339 nM"},
      {"smiles": "CCN1CCN(C2=C(NS(=O)(=O)c3ccc(Br)cc3)C(=O)c3ccccc3C2=O)CC1", "AC40": "14100 nM"},
      {"smiles": "COC1=C(NS(=O)(=O)c2cccs2)C(=O)c2ccccc2C1=O", "AC40": "9340 nM"},
      {"smiles": "O=C1C=C(NS(=O)(=O)c2ccccc2)C(=O)c2ccccc21", "AC40": "138 nM"},
      {"smiles": "CN1CCN(C2=C(NS(=O)(=O)c3ccc(Br)s3)C(=O)c3ccccc3C2=O)CC1", "AC40": "7940 nM"},
      {"smiles": "O=C1C(Nc2ccc(Cl)cc2)=C(N2CCCC2)C(=O)c2ccccc21", "AC40": "9910 nM"},
      {"smiles": "CC(C)N1CCN(C2=C(Nc3ccc(F)cc3)C(=O)c3ccccc3C2=O)CC1", "AC40": "6510 nM"},
      {"smiles": "NC1=C(NS(=O)(=O)c2ccccc2)C(=O)c2ccccc2C1=O", "AC40": "4390 nM"},
      {"smiles": "CCN1CCN(C2=C(NC(=O)c3ccccc3)C(=O)c3ccccc3C2=O)CC1", "AC40": "2410 nM"},
      {"smiles": "CN1CCN(C2=C(Nc3ccc(F)cc3F)C(=O)c3ccccc3C2=O)CC1", "AC40": "2450 nM"},
      {"smiles": "C=CCNC1=C(Cl)C(=O)c2ccccc2C1=O", "AC40": "1460 nM"},
      {"smiles": "COC1=C(Nc2ccccc2)C(=O)c2ccccc2C1=O", "AC40": "204 nM"},
      {"smiles": "O=C1C=C(Nc2ccccc2)C(=O)c2ccccc21", "AC40": "571 nM and 394 nM"},
      {"smiles": "NS(=O)(=O)c1ccc(NC2=CC(=O)c3ccccc3C2=O)cc1", "AC40": "141 nM"},
      {"smiles": "O=C1C(NS(=O)(=O)c2cccs2)=C(c2ccccc2)C(=O)c2ccccc21", "AC40": "3790 nM"},
      {"smiles": "O=C(NC1=C(Cl)C(=O)c2ccccc2C1=O)c1ccccc1", "AC40": "203 nM"},
      {"smiles": "CCN1CCN(C2=C(Nc3ccc(F)cc3F)C(=O)c3ccccc3C2=O)CC1", "AC40": "1410 nM"},
      {"smiles": "NC1=C(NS(=O)(=O)c2cccs2)C(=O)c2ccccc2C1=O", "AC40": "1980 nM"},
      {"smiles": "O=C1C=C(Nc2ccc([N+](=O)[O-])c(C(F)(F)F)c2)C(=O)c2ccccc21", "AC40": "78.7 nM"},
      {"smiles": "O=C1C=C(NS(=O)(=O)c2ccc(Br)cc2)C(=O)c2ccccc21", "AC40": "358 nM"}
    ]}
  ]
}
